Laboratory results published in ChEMBL document CHEMBL4715882, “Evaluation of pyrrolidine-based analog of jaspine B as potential SphK1 inhibitors against rheumatoid arthritis” (Bioorg Med Chem Lett, 2021).
Each block holds one compound with its values, some of them ahead of it. Active and inactive are the calls of the source. The rule behind the calls is not given here.

Key:
[1] = Antiinflammatory activity against LPS-induced HFLS-RA cells; assay type: functional, cell-based, Homo sapiens
[2] = system: Rattus norvegicus; assay: Antiarthritic activity in CFA-induced rheumatoid arthritis Wistar rat model assessed as reduction in foot swelling at 3 mg/kg, ig measured after 21 to 28 days; assay type: functional, organism-based; conditions: time 21-28 day
[3] = system: Rattus norvegicus; assay: Antiinflammatory activity against CFA-induced rheumatoid arthritis Wistar rat model assessed as decrease in TNFalpha level at 3 mg/kg, ig measured after 28 days; assay type: functional, organism-based; conditions: time 28.0 day
[4] = system: Rattus norvegicus; assay: Antiinflammatory activity against CFA-induced rheumatoid arthritis Wistar rat model assessed as decrease in IL-1beta level at 3 mg/kg, ig measured after 28 days; assay type: functional, organism-based; conditions: time 28.0 day
[5] = system: Rattus norvegicus; assay: Antiarthritic activity in CFA-induced rheumatoid arthritis Wistar rat model assessed as reduction in arthritis index at 3 mg/kg, ig for 28 days; assay type: functional, organism-based; conditions: time 28.0 day
[6] = system: Rattus norvegicus; assay: Antiinflammatory activity against CFA-induced rheumatoid arthritis Wistar rat model assessed as decrease in cell infiltration at 3 mg/kg, ig after 28 days; assay type: functional, organism-based; conditions: time 28.0 day
[7] = system: Rattus norvegicus; assay: Antiarthritic activity in CFA-induced rheumatoid arthritis Wistar rat model assessed as increase in weight at 3 mg/kg, ig measured after 14 to 28 days; assay type: functional, organism-based; conditions: time 14-28 day
[8] = system: Rattus norvegicus; assay: Antiinflammatory activity against CFA-induced rheumatoid arthritis Wistar rat model assessed as decrease in cartilage damage at 3 mg/kg, ig after 28 days; assay type: functional, organism-based; conditions: time 28.0 day
[9] = system: Rattus norvegicus; assay: Antiinflammatory activity against CFA-induced rheumatoid arthritis Wistar rat model assessed as decrease in spleen index at 3 mg/kg, ig measured after 28 days; assay type: functional, organism-based; conditions: time 28.0 day
[10] = system: Rattus norvegicus; assay: Antiinflammatory activity against CFA-induced rheumatoid arthritis Wistar rat model assessed as decrease in synovial hyperplasia at 3 mg/kg, ig after 28 days; assay type: functional, organism-based; conditions: time 28.0 day
[11] = system: Rattus norvegicus; assay: Antiinflammatory activity against CFA-induced rheumatoid arthritis Wistar rat model assessed as decrease in IL6 level at 3 mg/kg, ig measured after 28 days; assay type: functional, organism-based; conditions: time 28.0 day
[12] = target: Sphingosine kinase 1 (Homo sapiens, UniProt Q9NYA1); assay: Inhibition of SphK1 (unknown origin)
Sequence of Sphingosine kinase 1 (Q9NYA1 whole entry): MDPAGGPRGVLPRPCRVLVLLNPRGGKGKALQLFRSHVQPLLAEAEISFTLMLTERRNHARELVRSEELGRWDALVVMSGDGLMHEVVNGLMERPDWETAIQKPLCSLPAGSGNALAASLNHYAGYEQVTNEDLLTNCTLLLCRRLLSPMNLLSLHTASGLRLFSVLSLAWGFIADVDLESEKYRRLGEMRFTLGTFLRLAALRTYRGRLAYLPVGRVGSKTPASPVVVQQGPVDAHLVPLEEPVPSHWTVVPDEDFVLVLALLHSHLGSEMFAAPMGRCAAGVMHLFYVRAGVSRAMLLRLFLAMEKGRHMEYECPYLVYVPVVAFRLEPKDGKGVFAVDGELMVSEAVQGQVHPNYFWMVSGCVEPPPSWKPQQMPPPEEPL

[13] = target: T1, Sphingosine kinase 2 (Homo sapiens, UniProt Q9NRA0); assay: Inhibition of SphK2 (unknown origin)
T1 sequence (Q9NRA0 whole entry): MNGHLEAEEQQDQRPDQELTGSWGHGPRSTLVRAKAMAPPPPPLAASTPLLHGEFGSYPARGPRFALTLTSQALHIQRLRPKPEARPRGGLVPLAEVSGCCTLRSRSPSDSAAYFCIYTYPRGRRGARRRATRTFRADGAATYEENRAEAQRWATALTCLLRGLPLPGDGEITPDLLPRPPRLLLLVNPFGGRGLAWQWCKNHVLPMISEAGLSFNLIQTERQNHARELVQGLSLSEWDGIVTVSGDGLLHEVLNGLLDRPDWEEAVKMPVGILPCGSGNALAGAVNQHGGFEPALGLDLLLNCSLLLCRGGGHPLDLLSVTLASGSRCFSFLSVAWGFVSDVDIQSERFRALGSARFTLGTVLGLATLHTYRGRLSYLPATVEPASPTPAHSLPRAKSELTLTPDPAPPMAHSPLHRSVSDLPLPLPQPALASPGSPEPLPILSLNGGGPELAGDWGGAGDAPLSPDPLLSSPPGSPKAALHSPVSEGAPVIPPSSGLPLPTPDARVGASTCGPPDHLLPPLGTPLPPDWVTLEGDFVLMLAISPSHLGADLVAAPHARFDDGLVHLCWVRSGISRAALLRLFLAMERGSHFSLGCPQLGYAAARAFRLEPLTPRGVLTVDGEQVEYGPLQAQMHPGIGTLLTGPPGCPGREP

[14] = system: HFLS-RA; assay: Antiinflammatory activity against LPS-induced HFLS-RA cells assessed as reduction in IL-1alpha expression; assay type: functional, cell-based; conditions: Homo sapiens, dose 5-20 µM
[15] = system: Rattus norvegicus; assay: Antiarthritic activity in CFA-induced rheumatoid arthritis Wistar rat model assessed as increase in weight at 30 mg/kg, ig measured after 14 to 28 days; assay type: functional, organism-based; conditions: time 14-28 day
[16] = system: HFLS-RA; assay: Antiinflammatory activity against LPS-induced HFLS-RA cells assessed as reduction in TNF-alpha expression; assay type: functional, cell-based; conditions: Homo sapiens, dose 5-20 µM
[17] = system: HFLS-RA; assay: Antiinflammatory activity against LPS-induced HFLS-RA cells assessed as reduction in IL-6 expression; assay type: functional, cell-based; conditions: Homo sapiens, dose 5-20 µM
[18] = system: Rattus norvegicus; assay: Antiarthritic activity in CFA-induced rheumatoid arthritis Wistar rat model assessed as reduction in arthritis index at 30 mg/kg, ig for 28 days; assay type: functional, organism-based; conditions: time 28.0 day
[19] = system: Rattus norvegicus; assay: Antiinflammatory activity against CFA-induced rheumatoid arthritis Wistar rat model assessed as decrease in synovial hyperplasia at 30 mg/kg, ig after 28 days; assay type: functional, organism-based; conditions: time 28.0 day
[20] = system: Rattus norvegicus; assay: Antiarthritic activity in CFA-induced rheumatoid arthritis Wistar rat model assessed as reduction in foot swelling at 30 mg/kg, ig measured after 21 to 28 days; assay type: functional, organism-based; conditions: time 21-28 day
[21] = system: Rattus norvegicus; assay: Antiinflammatory activity against CFA-induced rheumatoid arthritis Wistar rat model assessed as decrease in cartilage damage at 30 mg/kg, ig after 28 days; assay type: functional, organism-based; conditions: time 28.0 day
[22] = system: Rattus norvegicus; assay: Antiinflammatory activity against CFA-induced rheumatoid arthritis Wistar rat model assessed as decrease in paw swelling at 30 mg/kg, ig after 28 days; assay type: functional, organism-based; conditions: time 28.0 day
[23] = system: Rattus norvegicus; assay: Antiinflammatory activity against CFA-induced rheumatoid arthritis Wistar rat model assessed as decrease in cell infiltration at 30 mg/kg, ig after 28 days; assay type: functional, organism-based; conditions: time 28.0 day
[24] = system: Rattus norvegicus; assay: Antiinflammatory activity against CFA-induced rheumatoid arthritis Wistar rat model assessed as decrease in spleen index at 30 mg/kg, ig measured after 28 days; assay type: functional, organism-based; conditions: time 28.0 day
[25] = system: Rattus norvegicus; assay: Antiinflammatory activity against CFA-induced rheumatoid arthritis Wistar rat model assessed as decrease in IL6 level at 30 mg/kg, ig measured after 28 days; assay type: functional, organism-based; conditions: time 28.0 day
[26] = system: Rattus norvegicus; assay: Antiinflammatory activity against CFA-induced rheumatoid arthritis Wistar rat model assessed as decrease in IL-1beta level at 30 mg/kg, ig measured after 28 days; assay type: functional, organism-based; conditions: time 28.0 day
[27] = system: HFLS-RA; assay: Antiinflammatory activity against LPS-induced HFLS-RA cells assessed as reduction in IL-1beta expression; assay type: functional, cell-based; conditions: Homo sapiens, dose 5-20 µM
[28] = system: Rattus norvegicus; assay: Antiinflammatory activity against CFA-induced rheumatoid arthritis Wistar rat model assessed as decrease in TNFalpha level at 30 mg/kg, ig measured after 28 days; assay type: functional, organism-based; conditions: time 28.0 day

SMILES: N[C@H]1CN[C@H](CCCCCCCCCCCOCC2CCCCC2)[C@H]1O
- IC50 [1]: 46.3 µM

SMILES: N[C@H]1CN[C@H](CCCCCCCCCCOO)[C@H]1O
- IC50 [1]: 116 µM

SMILES: Cc1ccc(-c2cc(C(F)(F)F)nn2-c2ccc(S(N)(=O)=O)cc2)cc1
- Activity [2]: Active
- Activity [3]: Active
- Activity [4]: Active
- Activity [5]: Active
- Activity [6]: Active
- Activity [7]: Active
- Activity [8]: Active
- Activity [9]: Active
- Activity [10]: Active
- Activity [11]: Active

SMILES: N[C@H]1CN[C@H](CCCCCCCCCCOCC2CCCCC2)[C@H]1O
- IC50 [1]: 51.2 µM

SMILES: N[C@H]1CN[C@H](CCCCCCCCCCOCc2ccc(C(F)(F)F)cc2)[C@H]1O
- IC50 [1]: 19.6 µM

SMILES: CC(OCCCCCCCCCC[C@H]1NC[C@H](N)[C@@H]1O)c1ccccc1 (some centres not stated)
- IC50 [1]: 24.8 µM

SMILES: CC(C)COCCCCCCCCCC[C@H]1NC[C@H](N)[C@@H]1O
- IC50 [1]: 18.1 µM

SMILES: CCCCCCCCCCCC[C@H]1NC[C@H](N)[C@@H]1O
- IC50 [1]: 94.8 µM

SMILES: CCCCCCCCCCCCCC[C@H]1NC[C@H](N)[C@@H]1O [listing 2 of 3 here]
- Activity [14]: Dose-dependent effect
- Activity [15]: Active
- Activity [16]: Dose-dependent effect
- Activity [17]: Dose-dependent effect
- Activity [18]: Active
- Activity [19]: Active
- Activity [20]: Active
- Activity [21]: Active
- Activity [22]: Active
- Activity [23]: Active
- Activity [24]: Active
- Activity [25]: Active
- Activity [26]: Active
- Activity [27]: Dose-dependent effect
- Activity [28]: Active

SMILES: N[C@H]1CN[C@H](CCCCCCCCCOCC2CCCCC2)[C@H]1O
- IC50 [1]: 99.7 µM

SMILES: CC(OCCCCCCCCCC[C@H]1NC[C@H](N)[C@@H]1O)c1ccc(F)cc1 (some centres not stated)
- IC50 [1]: 18.9 µM

More lines, in order of falling IC50 [1], values ahead:

- IC50 [1]: 15.1 µM
SMILES: N[C@H]1CN[C@H](CCCCCCCCCOCc2ccccc2)[C@H]1O

- IC50 [1]: 14.3 µM
SMILES: COc1ccc(COCCCCCCCCCC[C@H]2NC[C@H](N)[C@@H]2O)c(OC)c1

- IC50 [1]: 11.4 µM
SMILES: Cc1c(F)c(F)c(COCCCCCCCCCC[C@H]2NC[C@H](N)[C@@H]2O)c(F)c1F

- IC50 [1]: 11.2 µM
SMILES: N[C@H]1CN[C@H](CCCCCCCCCCCOC2CCOCC2)[C@H]1O

- IC50 [12]: > 100 µM
- IC50 [1]: 10.7 µM
- IC50 [13]: > 100 µM
SMILES: CCCCCCCCCCCCCC[C@H]1NC[C@H](N)[C@@H]1O [listing 3 of 3 here]

- IC50 [1]: 10.7 µM
SMILES: N[C@H]1CN[C@H](CCCCCCCCCCOCc2ccc(F)cc2)[C@H]1O

- IC50 [1]: 10.2 µM
SMILES: N#Cc1ccc(COCCCCCCCCCC[C@H]2NC[C@H](N)[C@@H]2O)cc1

- IC50 [12]: 8.89 µM
- IC50 [1]: 8.64 µM
- IC50 [13]: > 100 µM
SMILES: CCCCCCCCCCCCCC[C@H]1NC[C@H](N)[C@@H]1O [listing 1 of 3 here]

- IC50 [1]: 5.48 µM
SMILES: CN(Cc1cnc2nc(N)nc(N)c2n1)c1ccc(C(=O)N[C@@H](CCC(=O)O)C(=O)O)cc1 [METHOTREXATE]
